According to US4876262A, “Piperidine derivative and pharmaceutical composition containing the same” (Eisai Co., Ltd., priority 1986, dated 1989):
Structures can show the parent of a compound that is named as a salt. Where two headings read alike, the source gives them in different places.

Assays:
in vivo = conditions: mouse, iv
Protocol: Male ddy mice weighing 20 to 30 g were used for the acute toxicity test. LD50 values were calculated by the up-and-down method. […] The dose to be administered was determined on the basis of the volume of the stock solution. The solutions were injected into a tail vein by means of a 1-ml tuberculin syringe. The judgement of survival or death was made 30 min after each injection.

[1] = tested on: anesthetized dogs (QTc-interval of ECG); test: Effects of QTc-interval of ECG in anesthetized dogs; type: in vivo, Mongrel dogs; conditions: forearm vein; for change in vivo at 1 mg/kg: 1 mg/kg (1.0 mg/kg)
[2] = tested on: isolated myocardium of guinea-pigs (right ventricular papillary muscles); test: Effects on the action potential duration in the isolated myocardium of guinea-pigs; parameters: species or system guinea-pig (male, Hartley strain); conditions: Cavia porcellus, 10 min; for activation at 10 µM / activation at 1 µM: read-out: APD90 prolongation; for inhibition at 10 µM / inhibition at 1 µM: read-out: Vmax inhibition
Protocol: Right ventricular papillary muscles were isolated from male guinea-pigs of Hartley strain weighing 300 to 400 g and fixed at the bottom of an acrylic bath with pins. […] The muscles were stimulated at 1 Hz with rectangular pulses of 1 msec duration and supramaximal voltage. Action potentials were recorded using conventional glass microelectrodes filled with 3M KCl. The duration of the action potential and the maximum velocity of the upstroke of the action potential (Vmax) were determined. Each of the test compounds was included in Tyrode solution at 10^-6 or 10^-5 M and perfused.
Sotalol, a beta-adrenoceptor antagonist was employed as the reference drug because this compound is known to prolong the duration of the myocardial action potential.

[3] = Canis lupus familiaris, iv, 0.1 mg/kg, enflurane anesthesia, read-out: prolongation of QTc-interval
[4] = Canis lupus familiaris, iv, enflurane anesthesia, read-out: prolongation of QTc-interval
[5] = 10^-5 M, another 10 min after 10^-6 M, 1 Hz, 37° C.
[6] = 10^-6 M, first 10 min, 1 Hz, 37° C.

Row | SMILES | LD50 at 0.5 h (in vivo) [mg/kg] | change in vivo at 0.1 mg/kg [1, 3] [%] | change in vivo at 0.3 mg/kg [1, 4] [%] | change in vivo at 1 mg/kg [1, 4] [%] | activation at 10 µM [2, 5] [%] | inhibition at 10 µM [2, 5] [%] | activation at 1 µM [2, 6] [%] | inhibition at 1 µM [2, 6] [%] | activation at 1 µM [2] [%] | activation at 10 µM [2] [%] | inhibition at 1 µM [2] [%] | inhibition at 10 µM [2] [%] | change in vivo at 0.03 mg/kg ([1]; Canis lupus familiaris, iv, 0.03 mg/kg, enflurane anesthesia, read-out: prolongation of QTc-interval) [%] | QTc-interval after compound ([1]; 0.1 mg/kg, from 435 msec before) [ms]
1 | CS(=O)(=O)Nc1ccc(C(=O)C2CCN(Cc3cnc4ccccc4c3)CC2)cc1.Cl.Cl [Compound M, 4-(4-methylsulfonylaminobenzoyl)-1-(3-quinolylmethyl)piperidine dihydrochloride] | 112 | 7 | 13 | 21 | 5 | 0 | 3 | 0 |  |  |  |  |  | 
2 | CS(=O)(=O)Nc1ccc(C(=O)C2CCN(Cc3ccc4nccn4c3)CC2)cc1 [Compound Q, 1-(6-imidazo[1,2-a]pyridylmethyl)-4-(4-methylsulfonylaminobenzoyl)piperidine dihydrochloride] |  |  |  |  | 23 | 0 | 4 | 0 |  |  |  |  |  | 
3 | CS(=O)(=O)Nc1ccc(C(=O)C2CCN(C(=O)c3cccnc3)CC2)cc1 [Compound K, 4-(4-methylsulfonylaminobenzoyl)-1-nicotinoylpiperidine] |  |  |  |  | 24 | 14 | 9 | 0 |  |  |  |  |  | 
4 | CC(C)NCC(O)c1ccc(NS(C)(=O)=O)cc1 (centres unmarked) [Sotalol, reference compound] | 113 |  |  | 12 | 7 | 0 | 0 | 0 |  |  |  |  |  | 
5 | CS(=O)(=O)Nc1ccc(C(=O)C2CCN(CC(=O)c3cnc4ccccn34)CC2)cc1.Cl.Cl [Compound N, 1-[2-(3-imidazo[1,2-a]pyridyl)-2-oxo-ethyl]-4-(4-methylsulfonylaminobenzoyl)piperidine dihydrochloride] | 224 |  |  |  | 8 | 0 | 8 | 0 |  |  |  |  |  | 
6 | CS(=O)(=O)Nc1ccc(C(=O)C2CCN(Cc3ccccc3)CC2)cc1 [Compound A, 1-benzyl-4-(4-methylsulfonylaminobenzoyl)piperidine hydrochloride] |  |  |  |  | 7 | 0 | 0 | 0 |  |  |  |  |  | 
7 | Cc1cccc(CCN2CCC(C(=O)c3ccc(NS(C)(=O)=O)cc3)CC2)n1 [Compound S, 1-(2-(6-methyl-2-pyridyl)ethyl)-4-(4-methylsulfonylaminobenzoyl)piperidinedihydrochloride] |  |  |  |  |  |  |  |  | 20 | 30 | 0 | 0 |  | 
8 | CS(=O)(=O)Nc1ccc(C(=O)C2CCN(Cc3ccncc3)CC2)cc1.Cl.Cl [Compound G, 4-(4-methylsulfonylaminobenzoyl)-1-(4-pyridyl)methylpiperidine dihydrochloride] | 108 | 17 | 27 | 35 | 33 | 0 | 18 | 0 |  |  |  |  |  | 
9 | CS(=O)(=O)Nc1ccc(C(=O)C2CCN(CCc3cccnc3)CC2)cc1 [Compound I, 4-(4-methylsulfonylaminobenzoyl)-1-[2-(3-pyridyl)ethyl]piperidine dihydrochloride] |  |  |  |  | 17 | 0 | 10 | 0 |  |  |  |  |  | 
10 | COc1ccc(CCN2CCC(C(=O)c3ccc(NS(C)(=O)=O)cc3)CC2)cc1OC [Compound E, 1-[2-(3,4-dimethoxyphenyl)ethyl]-4-(4-methylsulfonylaminobenzoyl)piperidine hydrochloride] |  |  |  |  | 14 | 0 | 12 | 0 |  |  |  |  |  | 
11 | CS(=O)(=O)Nc1ccc(C(=O)C2CCN(CCCc3ccncc3)CC2)cc1.Cl.Cl [Compound R, 4-(4-methylsulfonylaminobenzoyl)-1-(3-(4-pyridyl)propyl)piperidine dihydrochloride] | 138 | 21 |  |  | 27 | 0 | 18 | 0 |  |  |  |  | 13 | 
12 | CS(=O)(=O)Nc1ccc(C(=O)C2CCN(C(=O)c3ccc(NS(C)(=O)=O)cc3)CC2)cc1 [Compound D, 1,4-di(4-methylsulfonylaminobenzoyl)piperidine hydrochloride] |  |  |  |  | 10 | 0 | 3 | 0 |  |  |  |  |  | 
13 | CS(=O)(=O)Nc1ccc(C(=O)C2CCN(Cc3cn4ccccc4n3)CC2)cc1 [Compound O, 1-(1-imidazo[1,2-a]pyridylmethyl)-4-(4-methylsulfonylaminobenzoyl)piperidine dihydrochloride] | 302 |  |  |  | 12 | 5 | 6 | 0 |  |  |  |  |  | 
14 | CS(=O)(=O)Nc1ccc(C(=O)C2CCN(CCc3cccs3)CC2)cc1.CS(=O)(=O)O [Compound F, 4-(4-methylsulfonylaminobenzoyl)-1-[2-(2-thienyl)ethyl]piperidine methylsulfonate] | 112 |  |  |  | 11 | 0 | 8 | 0 |  |  |  |  |  | 
15 | CS(=O)(=O)Nc1ccc(C(=O)C2CCN(CCc3ccc(Cl)cc3)CC2)cc1 [Compound C, 1-[2-(4-chlorophenyl)ethyl]-4-(4-methylsulfonylaminobenzoyl)piperidine hydrochloride] |  |  |  |  | 15 | 0 | 7 | 0 |  |  |  |  |  | 
16 | CCN1CCC(C(=O)c2ccc(NS(C)(=O)=O)cc2)CC1 [Compound P, 1-ethyl-4-(4-methylsulfonylaminobenzoyl)piperidine hydrochloride] |  | 7 | 14 |  | 23 | 2 | 7 | 0 |  |  |  |  |  | 
17 | CS(=O)(=O)Nc1ccc(C(=O)C2CCN(CCc3ccccn3)CC2)cc1 [Compound H, 4-(4-methylsulfonylaminobenzoyl)-1-[2-(2-pyridyl)ethyl]piperidine dihydrochloride] |  |  |  |  | 5 | 0 | 2 | 0 |  |  |  |  |  | 
18 | CS(=O)(=O)Nc1ccc(C(=O)C2CCN(CCc3ccncc3)CC2)cc1.Cl.Cl [Compound J, 4-(4-methylsulfonylaminobenzoyl)-1-[2-(4-pyridyl)ethyl]piperidine dihydrochloride] | 195 | 21 | 42 |  | 10 | 0 | 4 | 0 |  |  |  |  |  | 
19 | CS(=O)(=O)Nc1ccc(C(=O)C2CCN(CCc3ccccc3)CC2)cc1.Cl [Compound B, 4-(4-methylsulfonylaminobenzoyl)-1-(2-phenylethyl)piperidine hydrochloride] | 100 | 51 |  |  | 34 | 19 | 26 | 0 |  |  |  |  |  | 665
20 | CS(=O)(=O)Nc1ccc(C(=O)C2CCN(Cc3ccc4ccccc4n3)CC2)cc1.Cl.Cl [Compound L, 4-(4-methylsulfonylaminobenzoyl)-1-(2-quinolylmethyl)piperidine dihydrochloride] | 112 | 31 | 56 |  | 26 | 2 | 18 | 0 |  |  |  |  |  | 
